From patent US20070015771A1, “Lonidamine analogs” (Threshold pharmaceuticals, Inc., priority 2004, published 2007)
Read-outs that look alike come from different tables or passages of the source.

Key:
NCI-H460 cells = test: Antiproliferation assay 3 days, NCI-H460 cells; type: cell-based; settings: read-out: NCI-H460 cell line IC50
Procedure: (§1) To determine the effect of lonidamine analogs thereof on cell proliferation, the antiproliferative activity of these compounds was tested in a multi-well Alamar Blue based assay (at 3 days). Cell growth in the presence and absence of the test compound was compared, as measured by a fluoresence plate reader at excitation 550 nm and emission 590 nm (see Biosource International Inc., Tech Application Notes, Use of Alamar Blue in the measurement of Cell Viability and Toxity, Determining IC50). The following cell lines were tested: PWR-1E cells ((ATCC CRL-11611), 3500 cells/well/200 μl in Keratinocyte SFM medium (Gibco Products, Invitrogen Corporation, Carlsbad, Calif.)); DU-145 cells ((ATCC HTB-81), 4000 cells/well/200 μl in MEM Eagles medium (ATCC, Manassas, Va.)); PC3 cells ((ATCC CRL-1435), 4000 cells/200 μl in Modified HAM's F12 medium (ATCC, Manassas, Va.)); PNt2 cells ((Sigma-Aldrich, 95012613-1 VL), 4000 cells/well/200 μl in RPMI medium (Gibco Products, Invitrogen Corporation, Carlsbad, Calif.), BPH-1 ((DSMZ ACC-143), 4000 cells/well/200 μl in RPMI medium (Gibco Products, Invitrogen Corporation, Carlsbad, Calif), and NCI-H460 cells ((ATCC HTB-177), 4000 cells/well/200 μl in RPMI medium (Gibco Products, Invitrogen Corporation, Carlsbad, Calif.)). The cells were seeded in a 96 well plate in a medium specified above. After 24 hours, these plates were divided into 2 groups—Control group and 3 day treatment group. A test compound was added to each plate in the treatment groups at concentrations of […] as tabulated in Table 1 (in 2 μl 1 of 100% DMSO, final DMSO concentration 1% in all wells). For NCI-H460 cells, test compounds were added to each plate in the treatment groups at concentrations of 600, 300, 100, 30, 10, 3, and 1 μM (in 2 μl of 100% DMSO, final DMSO concentration 1% in all wells). The cells in the 3 day treatment group were incubated for 3 days, followed by staining with AlamarBlue. In the Control group, AlamarBlue was added to the plate at (i) day 0 and (ii) day 3 and measured to establish the control reading. […] For the NCI-H460 cells, the capacity of the cells to proliferate was measured 5 hours after addition of AlamarBlue using the same fluorescence plate reader as stated above.

PWR-1E cells = test: Antiproliferation assay 3 days, PWR-1E cells (Example 49); type: cell-based; settings: read-out: PWR1e cell line IC50
Procedure: as §1

SH rat prostate = test: 5 day systemic administration in male SH rats, prostate; type: in vivo; parameters: inhibition in vivo: dose or concentration left out as unconfirmed; settings: for Prostate shrinkage: male SH rats, oral daily for 5 days at 50 mg/ml, day 6; for inhibition in vivo: Rattus norvegicus, po, 144 h, read-out: Prostate shrinkage
Procedure: (§2) The effect of test compounds (lonidamine and lonidamine analogs) on the SH rat prostate was determined as follows. The test compound was orally administered daily for 5 days to male, SH rat, (n=6, 14 weeks old, Charles River Labs) at 50 mg/ml concentrations (as a 0.5% carboxymethylcellulose formulation). The control rats received an equal amount of the vehicle ([…]). Blood samples were collected 2 hours after administration on day 6, for pharmokinetic analysis of the compounds. On day 6 the rats were sacrificed and the entire prostate and the individual lobes (e.g., the ventral, dorso-lateral, and anterior lobes) were removed and weighed to measure absolute weights. Relative weights of prostate and individual lobes were calculated by dividing the absolute weight by the total body weight of the […]. Relative weights of the entire prostate, the dorsal prostate, and the ventral prostate were calculated by dividing the absolute weight by the total weight of the mouse. The histomorphology of the prostate was also analyzed and compared to that of the control or untreated prostate.

testes = test: 5 day systemic administration in male SH rats, testis; type: in vivo, rat; parameters: inhibition in vivo: dose or concentration left out as unconfirmed; settings: for Testis shrinkage: male SH rats, oral daily for 5 days at 50 mg/ml, day 6; for inhibition in vivo: Rattus norvegicus, po, 144 h, read-out: Testis shrinkage
H460 cells = test: Antiproliferation assay (Alamar Blue), H460 cells; type: cell-based
Procedure: To determine the effect of lonidamine and analogs thereof on cell proliferation, the antiproliferative activity of these compounds was tested in a multi-well Alamar Blue based assay (at 2 h and 3 days). Cell growth in the presence and absence of the test compound (compounds 1-22) was compared, as measured by a fluorescence plate reader at excitation 550 nm and emission 590 nm (see Biosource International Inc., Tech Application Notes, Use of Alamar Blue in the measurement of Cell Viability and Toxicity, Determining IC50). H460 cells (ATCC HTB-177 ([…]), 4,000 cells/well/200 μl) and LNCap cells (ATCC CRL-1740, 6,000 cells/well/200 μl) were seeded in a 96 well plate in RPMI medium (Invitrogen Corporation, Carlsbad, Calif.). After 24 hours, these plates were divided into 3 groups—Control group, 2 h treatment group and 3 day treatment group. In the 2 h treatment group, after 2 h the cells were rinsed to remove the test compound and incubated for 3 days, followed by staining with AlamarBlue. The cells in the 3 day treatment group were incubated for 3 days, followed by staining with AlamarBlue. In the Control group, AlamarBlue was added to the plate at (i) day 0 and (ii) day 3 and measured to establish the control reading.

[1] = 5 day systemic administration in male SH rats, pharmacokinetic blood samples; type: in vivo, rat; settings: oral daily for 5 days at 50 mg/ml, blood 2 hours after administration
Procedure: as §2

[2] = Homo sapiens, NCI-H460, 72 h, 3 day treatment
[3] = Homo sapiens, PWR-1E, 72 h, 3 day treatment
[4] = 3 day treatment, read-out: GI50 H460 cell 3 days
[5] = read-out: GI50 H460 cell 2 hr, 2 h treatment then 3 days incubation

Row | Compound | IC50 (PWR-1E cells; 3 day treatment) | IC50 (NCI-H460 cells; Homo sapiens, NCI-H460, 72 h) | IC50 (PWR-1E cells; Homo sapiens, PWR-1E, 72 h) | further results
1 | O=Cc1nc(Cc2ccc(Cl)cc2Cl)n2ccccc12 [Compound 88] | – | – | – | IC50 (NCI-H460 cells; [2]): 48 µM; IC50 (PWR-1E cells; [3]): 12 µM
2 | O=C(NC1CC1)c1nn(Cc2c(Cl)cccc2Cl)c2ccccc12 [Compound 46] | > 30 µM | – | – | –
3 | O=C(c1nn(Cc2ccc(Cl)cc2Cl)c2ccccc12)N1CCOCC1 [Compound 48] | > 10 µM | – | – | Prostate shrinkage (SH rat prostate): 3.3%; Testis shrinkage (testes): 4.3%
4 | O=C(O)c1nn(Cc2ccc(Cl)nc2)c2ccccc12 [Compound 94] | – | > 600 µM | – | –
5 | N#Cc1cc(Cl)ccc1Cn1nc(C(=O)O)c2ccccc21 [Compound 95] | – | 275 µM | 85 µM | –
6 | CONC(=O)c1nn(Cc2ccc(Cl)cc2Cl)c2ccc(C)cc12 [Compound 57] | 39 µM | – | – | –
7 | O=C(O)c1nn(Cc2cc3c(cc2Cl)OCO3)c2ccccc12 [Compound 69] | – | – | 145 µM | –
8 | O=C(O)c1nn(Cc2cccnc2)c2ccccc12 [Compound 85] | – | > 600 µM | – | –
9 | O=C(NCCO)c1nn(Cc2ccc(Cl)cc2Cl)c2ccccc12 [Compound 10] | 14 µM | – | – | GI50 (H460 cells; [4]): 50 µM; GI50 (H460 cells; [5]): 78 µM
10 | Cc1ccc2c(c1)c(C(=O)NO)nn2Cc1ccc(Cl)cc1Cl [Compound 52] | 0.34 µM | – | – | –
11 | NC(=O)c1nn(Cc2c(Cl)cccc2Cl)c2ccccc12 [Compound 25] | – | – | > 100 µM | –
12 | CC(c1ccc(Cl)cc1Cl)n1nc(C(=O)O)c2ccccc21 (centres unmarked) [Compound 67] | – | 148 µM | 21 µM | inhibition in vivo (SH rat prostate): 18.2%; inhibition in vivo (testes): 34.9%
13 | CN(C)C(=O)c1nn(Cc2ccc(Cl)cc2Cl)c2ccccc12 [Compound 49] | > 100 µM | – | – | –
14 | O=C(O)c1c2ccccc2nn1S(=O)(=O)c1ccc(Cl)cc1Cl [Compound 105] | 21 µM | – | – | IC50 (NCI-H460 cells; 3 day treatment): 182 µM
15 | O=C(O)c1nn(Cc2cc(Cl)ccc2Cl)c2ccccc12 [Compound 83] | – | 126 µM | 38 µM | inhibition in vivo (SH rat prostate): 31.7%; inhibition in vivo (testes): 48%
16 | NNC(=O)c1nn(Cc2c(Cl)cccc2Cl)c2ccccc12 [Compound 44] | > 10 µM | – | – | –
17 | CNC(=O)c1nn(Cc2c(Cl)cccc2Cl)c2ccccc12 [Compound 37] | 36 µM | – | – | –
18 | O=C(O)c1nc(Cc2ccc(Cl)cc2Cl)n2ccccc12 [Compound 89] | 10 µM | – | – | IC50 (NCI-H460 cells; 3 day treatment): 41 µM
19 | O=C(O)c1nn(S(=O)(=O)c2ccc(Cl)cc2Cl)c2ccccc12 [Compound 104] | 19 µM | – | – | IC50 (NCI-H460 cells; 3 day treatment): 195 µM
20 | O=C(O)c1nn(Cc2ccc(-c3ccccc3)cc2)c2ccccc12 [Compound 22] | 25 µM | – | – | GI50 (H460 cells; [4]): 158 µM; GI50 (H460 cells; [5]): > 400 µM
21 | O=C(O)c1nn(Cc2ccc(Cl)nc2)c2ccccc12 [Compound 73] | – | – | > 300 µM | –
22 | CONC(=O)c1nn(Cc2ccc(Cl)cc2Cl)c2ccccc12 [Compound 53] | – | – | – | Prostate shrinkage (SH rat prostate): 6.9%; PK [1]: 1 µg/mL; Testis shrinkage (testes): 9.2%
23 | OCc1nc(Cc2ccc(Cl)cc2Cl)n2ccccc12 [Compound 92] | – | – | – | IC50 (NCI-H460 cells; [2]): 43 µM; IC50 (PWR-1E cells; [3]): 11 µM
24 | O=C(O)c1cn(Cc2cc(Cl)ccc2Cl)c2ccccc12 [Compound 100] | – | 125 µM | – | –

Row | Compound | IC50 (PWR-1E cells; 3 day treatment) | IC50 (NCI-H460 cells; Homo sapiens, NCI-H460, 72 h) | IC50 (PWR-1E cells; Homo sapiens, PWR-1E, 72 h) | further results
25 | Cc1noc(C)c1Cn1nc(C(=O)O)c2ccccc21 [Compound 71] | – | – | > 300 µM | –
26 | O=C(O)c1nn(C(=O)c2ccc(Cl)cc2Cl)c2ccccc12 [Compound 98] | – | – | – | IC50 (PWR-1E cells; [3]): 4 µM
27 | O=C(NCCN1CCOCC1)c1nn(Cc2c(Cl)cccc2Cl)c2ccccc12 [Compound 43] | 45 µM | – | – | –
28 | O=C(O)c1nn(Cc2cc(C(F)(F)F)ccc2Cl)c2ccccc12 [Compound 106] | – | 4 µM | – | –
29 | O=C(O)c1nn(Cc2ccccn2)c2ccccc12 [Compound 84] | – | > 600 µM | – | –
30 | Cc1cc(Cn2nc(C(=O)O)c3ccccc32)n(C)n1 [Compound 75] | – | > 180 µM | > 300 µM | –
31 | O=Cc1nn(Cc2ccc(Cl)cc2Cl)c2ccccc12 [Compound 61] | – | – | 1.5 µM | –
32 | O=C(Nc1cccnc1)c1nn(Cc2ccc(Cl)cc2Cl)c2ccccc12 [Compound 51] | – | – | – | Prostate shrinkage (SH rat prostate): 8.7%; PK [1]: 0.45 µg/mL; Testis shrinkage (testes): 2.2%
33 | O=C(Nc1nccs1)c1nn(Cc2ccc(Cl)cc2Cl)c2ccccc12 [Compound 9] | > 100 µM | – | – | GI50 (H460 cells; [4]): > 400 µM; GI50 (H460 cells; [5]): > 400 µM
34 | O=C(Nc1ccccn1)c1nn(Cc2ccc(Cl)cc2Cl)c2ccccc12 [Compound 7] | – | – | – | GI50 (H460 cells; [4]): 20 µM; GI50 (H460 cells; [5]): > 400 µM
35 | O=C(O)c1nn(Cc2ccccc2Cl)c2ccccc12 [Compound 27] | 30 µM | – | – | –
36 | O=C(OC1O[C@H](C(=O)O)[C@@H](O)[C@H](O)[C@H]1O)c1nn(Cc2ccc(Cl)cc2Cl)c2ccccc12 (some centres unmarked) [Compound 15] | – | – | 80 µM | GI50 (H460 cells; Homo sapiens, NCI-H460, 72 h, 3 day treatment, read-out: GI50 H460 cell 3 days): 316 µM; GI50 (H460 cells; Homo sapiens, NCI-H460, read-out: GI50 H460 cell 2 hr, 2 h treatment then 3 days incubation): > 400 µM
37 | CC(C)NC(=O)c1nn(Cc2ccccc2)c2ccccc12 [Compound 50] | 23 µM | – | – | –
38 | O=C(O)c1nn(Cc2ccccc2O)c2ccccc12 [Compound 76] | – | – | 288 µM | –
39 | COc1ccccc1Cn1nc(C(=O)O)c2ccccc21 [Compound 72] | – | – | 245 µM | –
40 | O=C(O)c1nn(Cc2ccc(Cl)c(Cl)c2)c2ccccc12 [Compound 82] | – | 128 µM | 36 µM | inhibition in vivo (SH rat prostate): 5%; inhibition in vivo (testes): -1.1%
41 | O=C(O)c1nn(Cc2ccncc2)c2ccccc12 [Compound 86] | – | > 600 µM | – | –
42 | O=C(O)c1nn(Cc2cc(Cl)ccc2F)c2ccccc12 [Compound 103] | – | 219 µM | 132 µM | –
43 | O=C(Nc1ccc(F)c(F)c1)c1nn(Cc2ccc(Cl)cc2Cl)c2ccccc12 [Compound 8] | > 3 µM | – | – | GI50 (H460 cells; [4]): 316 µM; GI50 (H460 cells; [5]): > 400 µM
44 | O=C(O)c1cn(Cc2ccc(Cl)cc2Cl)c2ccccc12 [Compound 78] | – | 89 µM | 22 µM | inhibition in vivo (SH rat prostate): 10.1%; inhibition in vivo (testes): 5.7%
45 | O=C(O)c1nn(Cc2ccc3c(c2)OCO3)c2ccccc12 [Compound 74] | – | 290 µM | > 100 µM | –
46 | O=C(NO)c1nn(Cc2ccc(Cl)cc2Cl)c2ccc(F)cc12 [Compound 47] | 5.6 µM | – | – | –
47 | O=C(O)c1nn(Cc2ccc(O)cc2)c2ccccc12 [Compound 77] | – | – | > 100 µM | –
48 | O=C(O)c1nn(Cc2cnc(Cl)c(Cl)c2)c2ccccc12 [Compound 87] | – | 323 µM | – | –
